Data from US20260266848A1, “COMPOSITIONS AND METHODS FOR DIAGNOSING AND TREATING DYSTONIA” (Duke University, priority 2023, published 2026).

System: DYT1 MEF secreted EVs
Assay: Small RNAseq of miRNAs in EVs secreted by DYT1 vs WT MEFs, ritonavir 24 h
Type: cell-based, mouse
Conditions: 24 hour culture exposure
Protocol: RNA was isolated from the DYT1 vs WT mouse embryonic fibroblast (MEF) secreted EVs, using the same cultures used in proteomic experiments. Small RNA sequencing was performed using a Illumina Novoseq 500. […] The number of independent culture preparations per genotype was three (N=3). The EV fraction was divided and separately analyzed for proteins and RNAs. […] Genotype-disrupted miRNAs and genotype-directionality as identified in FIG. 6A are indicated by blue and red dots in FIG. 6B. […] Blue and red data points of FIG. 6C identify genotype effect and directionality originally as in FIG. 6A.

## CC(C)c1nc(CN(C)C(=O)N[C@H](C(=O)N[C@@H](Cc2ccccc2)C[C@H](O)[C@H](Cc2ccccc2)NC(=O)OCc2cncs2)C(C)C)cs1 [ritonavir]
  effect on genotype-disrupted subset of EV miRNAs: strong correlation of corrective effects
Listed as Ritonavir
  effect on genotype-disrupted subset of EV miRNAs: stronger correlation of corrective effects
